# Results: ChEMBL document CHEMBL1139672, “1,2,3,4-Tetrahydroisoquinolinyl sulfamic acids as phosphatase PTP1B inhibitors” (Bioorg Med Chem Lett, 2006)
# Biological target: T1, Tyrosine-protein phosphatase non-receptor type 1 (Homo sapiens, UniProt P18031)
# T1 sequence (P18031 whole entry): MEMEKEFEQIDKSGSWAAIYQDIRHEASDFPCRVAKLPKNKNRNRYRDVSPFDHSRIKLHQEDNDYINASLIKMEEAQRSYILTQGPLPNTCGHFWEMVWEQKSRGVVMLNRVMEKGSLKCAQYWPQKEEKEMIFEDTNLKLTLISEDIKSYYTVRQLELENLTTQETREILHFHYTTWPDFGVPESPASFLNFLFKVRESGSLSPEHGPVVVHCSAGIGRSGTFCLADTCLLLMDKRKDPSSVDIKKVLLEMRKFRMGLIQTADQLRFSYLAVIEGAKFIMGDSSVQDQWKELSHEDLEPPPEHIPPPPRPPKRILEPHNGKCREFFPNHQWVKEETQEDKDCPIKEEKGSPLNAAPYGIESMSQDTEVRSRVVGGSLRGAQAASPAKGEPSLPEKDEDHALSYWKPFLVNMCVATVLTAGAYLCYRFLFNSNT
# Test: Inhibition of PTP1B
row,Compound,IC50 [µM]
1,CNC(=O)[C@@H]1Cc2ccc(NS(=O)(=O)O)cc2CN1C(=O)CCC(=O)O,154
2,CC(C)(C)OC(=O)N1Cc2cc(NS(=O)(=O)O)ccc2C[C@H]1CO,> 500
3,CNC(=O)[C@@H]1Cc2ccc(NS(=O)(=O)O)cc2CN1C(=O)CCCc1ccccc1,271
4,CNC(=O)[C@@H]1Cc2ccc(NS(=O)(=O)O)cc2CN1C(=O)CCc1cccc(O)c1,82.1
5,CNC(=O)[C@@H]1Cc2ccc(NS(=O)(=O)O)cc2CN1C(=O)CCc1ccc(C)cc1,198
6,CNC(=O)[C@@H]1Cc2ccc(NS(=O)(=O)O)cc2CN1C(=O)NCc1ccccc1,164
7,CC(C)(C)OC(=O)N1Cc2cc(NS(=O)(=O)O)ccc2C[C@H]1C(=O)NCc1ccccc1,120
8,CNC(=O)[C@@H]1Cc2ccc(NS(=O)(=O)O)cc2CN1C(=O)CCc1cccc(Cl)c1,101
9,CNC(=O)[C@@H]1Cc2ccc(NS(=O)(=O)O)cc2CN1C(=O)CCCCc1ccccc1,148
10,CNC(=O)[C@@H]1Cc2ccc(NS(=O)(=O)O)cc2CN1C(=O)CCc1cccc(C(F)(F)F)c1,146
11,CNC(=O)[C@@H]1Cc2ccc(NS(=O)(=O)O)cc2CN1C(=O)CCc1ccc(C(F)(F)F)cc1,225
12,CNC(=O)[C@@H]1Cc2ccc(NS(=O)(=O)O)cc2CN1C(=O)[C@H](Cc1ccccc1)NC(=O)OC(C)(C)C,> 500
13,CNC(=O)[C@@H]1Cc2ccc(NS(=O)(=O)O)cc2CN1C(=O)CCOc1ccccc1,83.6
14,CNC(=O)[C@@H]1Cc2ccc(NS(=O)(=O)O)cc2CN1C(=O)CCc1cc(NS(C)(=O)=O)cc(C(F)(F)F)c1,184
15,CNC(=O)[C@@H]1Cc2ccc(NS(=O)(=O)O)cc2CN1C(=O)COc1ccccc1,95.3
16,CNC(=O)[C@@H]1Cc2ccc(NS(=O)(=O)O)cc2CN1C(=O)COc1cccc(O)c1C(=O)OC,93.4
17,CNC(=O)[C@@H]1Cc2ccc(NS(=O)(=O)O)cc2CN1C(=O)c1ccccc1,286
18,CNC(=O)[C@@H]1Cc2ccc(NS(=O)(=O)O)cc2CN1C(=O)CCc1ccc(OC)cc1,242

# More lines, now with the values ahead:
row,IC50 [µM],Compound
1,51.4,CC(C)(C)OC(=O)N1Cc2cc(NS(=O)(=O)O)ccc2C[C@H]1C(=O)NCCc1ccccc1
2,42.5,CNC(=O)[C@@H]1Cc2ccc(NS(=O)(=O)O)cc2CN1C(=O)OC(C)(C)C
3,39.6,CNC(=O)[C@H](Cc1ccc(NS(=O)(=O)O)cc1)NC(=O)OC(C)(C)C
4,16.7,CC(C)COC(=O)[C@@H]1Cc2ccc(NS(=O)(=O)O)cc2CN1C(=O)OC(C)(C)C
5,8.23,Cc1noc([C@@H]2Cc3ccc(NS(=O)(=O)O)cc3CN2C(=O)OC(C)(C)C)n1
6,26,O=C(CCc1cccc(NS(=O)(=O)O)c1)N1CCc2ccc(NS(=O)(=O)O)cc2C1
7,36.7,CNC(=O)[C@@H]1Cc2ccc(NS(=O)(=O)O)cc2CN1C(=O)CCc1coc2ccccc12
8,64.4,CNC(=O)[C@@H]1Cc2ccc(NS(=O)(=O)O)cc2CN1C(=O)CCc1ccccc1
9,24.9,CNC(=O)[C@@H]1Cc2ccc(NS(=O)(=O)O)cc2CN1C(=O)/C=C/c1coc2ccccc12
10,19,COC(=O)[C@@H]1Cc2ccc(NS(=O)(=O)O)cc2CN1C(=O)OC(C)(C)C

# Biological target: T2, Tyrosine-protein phosphatase non-receptor type 2 (Homo sapiens, UniProt P17706)
# T2 sequence (P17706 whole entry): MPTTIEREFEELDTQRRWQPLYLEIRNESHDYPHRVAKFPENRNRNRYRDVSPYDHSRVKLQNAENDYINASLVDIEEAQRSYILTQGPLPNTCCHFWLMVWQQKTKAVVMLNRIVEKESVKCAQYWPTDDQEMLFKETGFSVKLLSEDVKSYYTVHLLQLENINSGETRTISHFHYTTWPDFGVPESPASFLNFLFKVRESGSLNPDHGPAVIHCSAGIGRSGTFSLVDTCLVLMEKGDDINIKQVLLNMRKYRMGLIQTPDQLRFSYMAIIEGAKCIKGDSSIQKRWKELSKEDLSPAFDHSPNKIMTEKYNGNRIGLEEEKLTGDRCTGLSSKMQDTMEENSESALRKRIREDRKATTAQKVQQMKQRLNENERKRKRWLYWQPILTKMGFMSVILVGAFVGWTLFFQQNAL
# Test: Inhibition of TCPTP
row,IC50 [µM],Compound
1,169,CNC(=O)[C@@H]1Cc2ccc(NS(=O)(=O)O)cc2CN1C(=O)OC(C)(C)C
2,80.1,CNC(=O)[C@H](Cc1ccc(NS(=O)(=O)O)cc1)NC(=O)OC(C)(C)C
3,204,O=C(CCc1cccc(NS(=O)(=O)O)c1)NCc1cccc(NS(=O)(=O)O)c1
4,68.6,O=C(CCc1cccc(NS(=O)(=O)O)c1)N1CCc2ccc(NS(=O)(=O)O)cc2C1
